Reference: US20010005720A1, “METHOD OF TREATING CHRONIC P[…] SCARRING DISEASES” (U.S.A. AS REPRESENTED BY THE SECRETARY DEPARTMENT OF HEALTH …, priority 1995, published 2001)

How the values were obtained:
[1] = Wardle 1992; cited from earlier work
Watanabe rabbits [2] = assay: Watanabe rabbits Study A: subcutaneous PPS, morphometry of aortic lesions; type: in vivo, rabbit
Method: Twelve Watanabe rabbits were divided into two groups of six each (Group A and Group B) and fed a high cholesterol diet (0.5% cholesterol). The animals of Group A were treated daily with normal saline subcutaneously, while the animals of Group B were treated daily with 10 mg/kg of PPS sodium (Elmiron®) subcutaneously.
Four of the PPS-treated animals (Group B) died prior to completion of the study, one on day 22 and three between day 80 and day 86. On day 89, the animals of Group A and the two remaining animals of Group B were euthanized and necropsied and their tissues evaluated, particularly sections from different major branches of the aorta.

normal mesangial cells [3] = assay: Cell growth (cell counts) in normal mesangial cells; type: cell-based
Method: (§1) Normal mesangial cells (8) were plated in basal medium plus 20% fetal bovine serum (Gibco, Grand Island, N.Y.) in 24-well plates (Nunc, PGC Scientific Corp., Gaithersburg, Md.) at a density of 2−2.5×10^4 cells/well. At 24 hours the medium was discarded, cells were washed twice with PBS and incubated for 24-72 h in serum-free medium with 0.1% bovine serum albumin (RIA grade, Sicjma). The medium was replaced with fresh basal medium plus 20% fetal bovine serum with or without 5-100 μg/ml of PPS or compared to standard heparin (100 μg/ml). Cells of duplicate wells were trypsinized and counted in an Elzone® cell counter (Particle Data Inc., Elmhurst, Ill.) at days +3 and +5. In parallel wells, thymidine incorporation was determined by adding 1 μCi/well of [^3H] thymidine ([methyl-^3H] thymidine); 2.0 Ci/mM; DuPont NEN, Boston, Mass.). Counts were determined at day 1 or at day 3.

[4] = tested on: normal mesangial cell layers; assay: mRNA levels of selected molecules in normal mesangial cell layers exposed to PPS (reverse transcription); type: cell-based; details: PPS 100 μg/ml; day 1 compared with days 3 and 5
Description: The control was β-actin, which was unchanged, consistent with the absence of proliferation in the treated cells.

GH transgenic mice = assay: GH transgenic mice, oral PPS sodium in drinking water; glomerular collagen by competitive PCR; type: in vivo, mouse; details: about 100 mg/kg, 10-12 weeks
Method: Six GH mice were treated for 10-12 weeks with oral PPS sodium (Elmiron®, Baker Norton Pharmaceuticals, Inc.) in their drinking water and six age-matched GH mice received tap water for the same duration. The amount of PPS sodium in the drinking water was about 100 mg/kg of animal body weight.
Glomeruli were isolated by microdissection in the presence of RNase inhibitors. The left kidney was perfused with saline followed by a collagenase solution containing soluble RNase inhibitors. The lower pole was removed prior to collagenase perfusion and snap frozen on dry ice for zymography. […]
Primers for mouse α1IV and α1I collagen, α smooth muscle cell actin, β-actin, laminin B1, tenascin, 92 kDa metalloproteinase and 72 kDa metalloproteinase mRNAs, and for bovine growth hormone genomic DNA, were synthesized on a PCR-Mate (Applied Biosystems, Foster City, Calif.). […] Primer specificity for mRNA was determined by omitting the reverse transcriptase enzyme. […] This permitted a rapid, non-quantitative assessment of mRNA levels. Thereafter, competitive PCR assays were utilized to measure α1IV collagen (and the ratio of α1IV collagen to GAPDH enzyme was calculated to normalize the data between animals), PDGF-B, α smooth muscle cell actin, β-actin, and laminin B1 cDNAs by constructing a cDNA mutant for each molecule, with a small internal deletion or a new restriction enzyme site. […]

[5] = Paul et al. 1987; Wardle; cited from earlier work
normal mesangial cells [6] = assay: DNA synthesis by [3H]thymidine incorporation in normal mesangial cells; type: cell-based; details: day one (24 hours); PPS 5-100 μg/ml; 20% fetal bovine serum
Method: as §1

Watanabe rabbits [7] = assay: Watanabe rabbits Study B: oral PPS in drinking water, aortic intima/media histology; type: in vivo, rabbit; details: oral about 30 mg/kg/day in drinking water
Method: Twenty Watanabe rabbits were divided into four groups of five each, Groups A through D. All of the rabbits were fed the same high cholesterol diet (0.5% cholesterol). The animals of Groups A and B were given tap water to drink, while the animals of Groups C and D were given tap water containing 0.5 mg/mL of PPS sodium (Elmiron®). Based on observations of pre-study water consumption by the animals, the total daily dose of PPS sodium consumed by each animal in the treatment groups was about 30 mg/kg.
The animals of Groups A and C were euthanized and necropsied on day 50 of the study and their aortae examined.
The rabbits of Groups B and D were euthanized and necropsied on day 64 of the study. The aortae of these groups were examined histologically and the respective cross-sectional areas of the intimal and medial layers in various aortal branches were measured.

smooth muscle cell = details: Paul et al. 1987; Wardle; cited from earlier work
[8] = 10 mg/kg/day s.c., day 89, 0.5% cholesterol diet
[9] = PPS vs control, 10 mg/kg/day s.c., day 89
[10] = all aortal cross-sections examined, 10 mg/kg/day s.c.

Pentosan polysulfate [PPS]
anticoagulant potency relative to heparin [1]: about one-fifteenth
partial thromboplastin time [1]: prolongs
treated animals that died prior to completion of the study (Watanabe rabbits [2]; 10 mg/kg daily subcutaneously, group of six, one on day 22, three between day 80 and 86, high cholesterol diet): Four
Plaque area, Abdominal Aorta (Watanabe rabbits [2]; [8]): 0.04 cm^2
Plaque area, Ascending Aorta (Watanabe rabbits [2]; [8]): 0.59 cm^2
Smooth Muscle Layer area, Abdominal Aorta (Watanabe rabbits [2]; [8]): 0.303 cm^2
Smooth Muscle Layer area, Ascending Aorta (Watanabe rabbits [2]; [8]): 0.243 cm^2
Smooth Muscle Layer area, Thoracic Aorta (Watanabe rabbits [2]; [8]): 0.334 cm^2
Smooth Muscle/Plaque, Abdominal Aorta (Watanabe rabbits [2]; [8]): 7.58
Smooth Muscle/Plaque, Ascending Aorta (Watanabe rabbits [2]; [8]): 4.12
Smooth Muscle/Plaque, Thoracic Aorta (Watanabe rabbits [2]; [8]): 1.184
plaque in cross-section of abdominal aorta (FIG. 11 photograph) (Watanabe rabbits [2]; 10 mg/kg/day s.c., high cholesterol diet): almost no sign of plaque
Fold decrease in Plaque Size, Abdominal Aorta (Watanabe rabbits [2]; [9]): 10.2×
Fold decrease in Plaque Size, Ascending Aorta (Watanabe rabbits [2]; [9]): 6.8×
Fold decrease in Plaque Size, Thoracic Aorta (Watanabe rabbits [2]; [9]): 2.5×
plaque deposits in comparison with control rabbits (Watanabe rabbits [2]; [10]): much smaller
ratio of smooth muscle layer to plaque, times higher than control rabbits (Watanabe rabbits [2]; [10]): ≤ 6.8 times
potency relative to native heparin on a molar basis (cell growth inhibition) (normal mesangial cells [3]; PPS 100 μg/ml vs heparin 100 μg/ml, three and five days): roughly twice
concentration of maximum inhibitory response (cell number) (normal mesangial cells [3]; day three, PPS 5-100 μg/ml, 20% fetal bovine serum): 25 µg/mL
92 kDa enzyme activity increase [4]: more than 50%
TGF-β mRNA reduction [4]: 50%
type I collagen mRNA [4]: substantially decreased
type IV collagen mRNA [4]: no changes
β-actin mRNA (control) [4]: unchanged
mean type IV collagen/GAPDH ratio in glomeruli relative to untreated (control) group (GH transgenic mice): less than half
scarring-type collagen present in glomeruli vs untreated animals (confirmed by histology and immunofluorescent microscopy) (GH transgenic mice): considerably less
hyperlipidemia [5]: decreases
concentration at which the maximum dose-response plateaued (DNA synthesis, tritiated thymidine incorporation) (normal mesangial cells [6]): 50 µg/mL
atherosclerotic plaque development in intima, visual, vs control (Watanabe rabbits [7]; day 50, Group C vs Group A): less atherosclerotic plaque development
mean intimal cross-sectional area in each aortal branch vs untreated (Watanabe rabbits [7]; day 64, Group D vs Group B): substantially less
ratio of intima to medial areas in every aortal branch vs untreated (Watanabe rabbits [7]; day 64, Group D vs Group B): lower
smooth muscle cell proliferation (smooth muscle cell): inhibits
